The record followed here is US6924289B2, “Benzyl(Idene)-lactam derivatives, their preparation and their use as selective (ANT) agonists of 5-HT1A- and/or 5-HT1D receptors” (Pfizer Inc, priority 1996, dated 2005).

Where a name gives a salt, the structure may show the parent alone.

For the compound `CN1CCN(c2ccccc2CC2CCCN(c3ccc(Cl)c(Cl)c3)C2=O)CC1.Cl` (stereo not drawn), the melting point (commonly the temperature of the solid-liquid transition) lay in the range of 106 to 108 °C.

`CN1CCN(c2ccc(F)cc2CC2CCCN(c3ccc(Cl)c(Cl)c3)C2=O)CC1.Cl` (stereo not drawn) had a melting point of 83 to 85 °C.

`CN(C)CCOc1ccccc1C=C1CCN(c2ccc(Cl)c(Cl)c2)C1=O` (as salt: HCl) [Example 27, 1-(3,4-Dichlorophenyl)-3-[2-(2-dimethylaminoethoxy)-benzylidene]-pyrrolidin-2one] yielded a melting point of 111 to 112 °C.

Compound `CN1CCN(c2ccccc2C=C2CCN(c3ccc(C(F)(F)F)cc3)C2=O)CC1` (as salt: hydrochloride) (hydrate or solvate) [Example 16, 3-[2-(4-Methylpiperazin-1-yl)-benzylidene]-1-(4-trifluoromethylphenyl)-pyrrolidin-2-one] came in with a melting point of 181 to 183 °C.

Take `CN1CCN(c2ccccc2C=C2C(=O)N(C)c3ccccc32)CC1.Cl.O` (hydrate or solvate): the melting point was 120 °C (dec.).

`CN1CCN(c2ccccc2C=C2CCCN(c3ccc(Cl)cc3)C2=O)CC1` [Example 11, 1-(4Chlorophenyl)-3-[2-(4-methylpiperazin-1-yl)-benzylidene]-piperidin-2-one] had a melting point of 177 to 178 °C.

Consider `CN1CCN(c2ccccc2C=C2CCCN(c3ccc(Cl)c(Cl)c3)C2=O)CC1` [Example 12, 1-(3,4-Dichlorophenyl)-3-[2-(4-methylpiperazin-1-yl)-benzylidene]-piperidin-2-one], for which the melting point is 138 to 139.5 °C.

For the compound `CN1CCN(c2ccc(F)cc2C=C2CCCN(c3ccc(Cl)cc3)C2=O)CC1` [Example 13, 1-(4-Chlorophenyl)-3-[5-fluoro-2-(4-methylpiperazin-1-yl)-benzylidene]-piperidin-2-one], the melting point lay in the range of 158 to 159 °C.

In the case of `CN1CCN(c2ccc(F)cc2C=C2CCCN(c3ccc(Cl)c(Cl)c3)C2=O)CC1` [Example 14, 1-(3,4-Dichlorophenyl)-3-[5-fluoro-2-(4methylpiperazin-1-yl)-benzylidene]-piperidin-2-one], the melting point fell in the range of 161 to 162 °C.

Take `CN1CCN(c2ccccc2C=C2CCN(c3ccccc3)C2=O)CC1` [Example 15, 3-[2-(4-Methylpiperazin-1-yl)-benzylidene]-1 phenylpyrrolidin-2-one]: the melting point was in the range of 178 to 179.5 °C.

With `CN1CCN(c2ccccc2C=C2CCN(c3ccc(C(F)(F)F)cc3)C2=O)CC1` [Example 16, 3-[2-(4-Methylpiperazin-1-yl)-benzylidene]-1-(4-trifluoromethylphenyl)-pyrrolidin-2-one], the melting point was in the range of 185 to 186.5 °C.

Compound `CN1CCN(c2ccccc2C=C2CCN(c3ccc(Cl)cc3)C2=O)CC1` [Example 18, 1-(4-Chlorophenyl)-3-[2-(4-methylpiperazin-1-yl)-benzylidene]-pyrrolidin-2-one] showed a melting point of 188 to 190 °C.

Take `CN1CCN(c2cc(F)ccc2C=C2CCN(c3ccccc3)C2=O)CC1` [Example 19, 3-[4Fluoro-2-(4-methylpiperazin-1-yl)-benzylidene]-1-phenylpyrrolidin-2-one]: the melting point fell in the range of 199 to 200.5 °C.

In turn, `CN1CCN(c2cccc(F)c2C=C2CCN(c3ccc(Cl)c(Cl)c3)C2=O)CC1` [Example 20, 1-(3,4-Dichlorophenyl)-3-[2-fluoro-6-(4-methylpiperazin-1-yl)-benzylidene]-pyrrolidin-2-one] registered a melting point of 170 to 171 °C.

With `CN1CCN(c2ccc(F)cc2C=C2CCCN(c3ccc(F)c(F)c3)C2=O)CC1` [Example 21, 1-(3,4-Difluorophenyl)-3-[5-fluoro-2(4-methylpiperazin-1-yl)-benzylidene]-piperidin-2-one], the melting point was in the range of 168 to 170 °C.

With `CN1CCN(c2ccc(F)cc2C=C2CCCN(CCc3ccc(Cl)cc3)C2=O)CC1` [Example 22, 1-[2-(4Chlorophenyl)ethyl]-3-[5-fluoro-2-(4-methylpiperazin-1-yl)-benzylidene]-piperidin-2-one], the melting point was 88 to 90 °C.

Consider `CN1CCN(c2ccccc2C=C2CCN(Cc3ccc(Cl)cc3)C2=O)CC1` [Example 23, 1-(4-Chlorobenzyl)-3-[2-(4-methylpiperazin-1-yl)-benzylidene]-pyrrolidin-2-one], for which the melting point is 129 to 130 °C.

`CN1CCN(c2ccc(F)cc2C=C2CCN(Cc3ccc(Cl)cc3)C2=O)CC1` [Example 24, 1-(4-Chlorobenzyl)-3-[5-fluoro-2-(4-methylpiperazin-1-yl)-benzylidene]-pyrrolidin-2one] showed a melting point of 131 to 132 °C.

Compound `Cc1ccc(N2CCN(C)CC2)c(C=C2CCN(c3ccc(Cl)c(Cl)c3)C2=O)c1` [Example 28, 1-(3,4-Dichlorophenyl)-3-[5-methyl-2-(4-methylpiperazin-1-yl)-benzylidene]-pyrrolidin-2one] came in with a melting point of 149 to 150 °C.

The compound `CN1CCN(c2ccccc2CC2CCN(c3ccc(F)c(F)c3)C2=O)CC1` (stereo not drawn) [Example 29, 1-(3,4-Difluorophenyl)-3-[2-(4-methylpiperazin-1-yl)-benzyl]-pyrrolidin-2-one] showed a melting point of 130 to 131 °C.

In the case of `CN1CCN(c2ccccc2CC2CCN(c3ccccc3)C2=O)CC1` (stereo not drawn) [Example 30, 3-[2-(4-Methylpiperazin-1-yl)-benzyl]-1-phenyl-pyrrolidin-2-one], the melting point was in the range of 104 to 105.5 °C.
